This note sets out measurements from patent US7674813B2, “Heterocyclic sulfonamide inhibitors of beta amyloid production containing an azole” (Wyeth, priority 2004, dated 2010).

Data set [1] relates to amyloid precursor protein (APP) proteolysis. As to the kind of experiment: Repressor Release Assay (RRA). Format: cell-based. Further details: key to RRA data (footnote symbols): **: Inactive due to toxicity; however, this compound, at 3-4 μM, reduces Aβ levels by 50% in CHO cells transfected with human APP695 as measured by ELISA without exhibiting toxicity.; ***: Inactive; however, this compound, at 1-4 μM, reduces Aβ levels by 50% in CHO cells transfected with human APP695 as measured by ELISA without exhibiting toxicity. The note with it: transfected CHO-K1 cells; for fold induction at 20 µg/mL: Cricetulus griseus, CHO-K1, all compounds tested at 20 μg/mL, luciferase activity over diluent control, read-out: RRA data (Fold increase of APPI). The procedure:
The beta amyloid inhibitory activity of many of the compounds of the present invention has been determined using the Repressor Release Assay (RRA). See, Table 3 below. A compound is considered active in RRA if it leads to at least a 1.5 fold increase in luciferase activity at 20 μg/mL and is non-toxic.
The compound is considered active in RRA if it leads to at least a 1.5 fold increase in APPI as measured by an increase in luciferase activity at 20 μg/mL and is non-toxic. Shuey, D. J., Sheiffele, P., Jones, D., Cockett, M. I., and Quinet, E. M. (1999) Repressor release: a useful tool for monitoring amyloid precursor protein (APP) proteolysis in mammalian cells. Society for Neuroscience Abstracts, Vol. 25, 29th Annual Meeting of Society for Neuroscience, Miami Beach, Fla., Oct. 23-28, 1999.
CHO—K1 cells are cultured in whole DMEM media (DMEM—High Glucose with 10% fetal bovine serum, 1% Non-essential Amino Acids, and 1% Penicillin-Streptomycin) at 37° C. with 5% CO2. Two million cells are plated into 10-cm dishes 24 hrs prior to transfection.
Transient transfections are completed as recommended by Gibco BRL using their Lipofectamine Plus system. First, 6 μg of pRSVO-luc and 6 μg of APP-lacI construct DNA are added to 460 μL Opti-Mem transfection media and incubated with 30 μL Plus reagent for 15 minutes. Then, a lipid mixture of 40 μL Lipofectamine reagent and 460 μL Opti-Mem transfection media is incubated with the DNA-Plus reagent mixture for 15 minutes. During the DNA-lipid incubation, the CHO—K1 cells are washed once and covered in 5.0 mL DMEM media without Penicillin-Streptomycin. The DNA-lipid preparation is then layered onto these cells and incubated at 37° C. overnight.
One and one half million transfected cells per well (100 μL total volume) are plated into sterile, opaque Packard 96-well Cultur-Plates in clear DMEM whole media (DMEM—without phenol red) and incubated at 37° C. with 5% CO2 for 3-5 hours.
Compounds are diluted using two different protocols; one protocol is used for compounds supplied neat (weighed powder in vial) and the other protocol is used for compounds supplied in solution (20 mM in DMSO in 96-well plates). For both protocols, 25 mM Hepes and 25 mM Hepes/1% DMSO are prepared fresh to be used as diluent. The Hepes/DMSO is used as the diluent control on all experimental plates.
The following Table 1 depicts the steps for compound dilution (the last step is the addition of compound to cells/media in tissue culture plate):
Because some compounds arrive in 96-well format at 20 mM, the following Table 2 represents the protocol for their dilution (an average molecular weight of these compounds was used to calculate these dilutions and as above, the last step is the addition of compound to cells/media in tissue culture plate):
Once compounds are diluted, they are applied in duplicate on cells in tissue culture plates (prepared above). Cells are incubated with compound at 37° C. with 5% CO2 for an additional 36-48 hours.
Luciferase assays (LucLite reagent, Packard) are performed and are read on a Packard TopCount instrument. Media is removed from each 96-well plate and replaced with 100 μL PBS per well (with Mg^2+ and Ca^2+). An equal volume (100 μL) of the LucLite lysis/substrate buffer is added to each well and the plates are sealed and mixed in the dark on a rotary shaker for 15-30 minutes at room temperature. Luciferase readings are then taken on the TopCount instrument. Measurements are expressed as relative light units (RLU) and are calculated and analyzed in MS Excel as follows:
Fold Increase: amount of luciferase activity (measured in relative light units) over diluent control.
SEM: standard error of the mean for fold increase.
Activity: A compound is considered active if it results in at least a 1.5 fold increase in luciferase activity at 20 μg/mL.
Toxicity: determined by loss of signal (<0.75 fold increase).

For data set [2], the system named is beta amyloid 40. As to the kind of experiment: Aβ40/42 ELISA Assay (Aβ40). The class given is cell-based. The note with it: Cricetulus griseus; CHO cells carrying the APP-REP-NL plasmid, 22 hours, sandwich ELISA. As to the method: (§1) Compounds are diluted from DMSO stocks to 2 μM and below in a cell culture medium. Compounds are then applied to CHO cells carrying the APP-REP-NL plasmid [Sudhir et. al, J. Biolog. Chem. 267:25602-25608 (1992)] for a period of 22 hours. After the conditioning period, medium is collected, diluted in assay buffer containing protein, and samples, controls, and synthetic peptide standards are incubated on a prepared ELISA plate. Using a sandwich ELISA with antibodies specifically directed against the carboxyl terminus of beta amyloid 40 or 42 (analogous to the method reported by Haugabook et al., J. Neurosci. Methods 108:171-179 (2001) but using goat anti-mouse IgG1 (source: Southern Biotech) as the anchor, 6E10 as the capture antibody (Source: SENETEK), rabbit antiAβ40 and antiAβ42 (source: QCB) and APL-donkey anti-rabbit IgG (H+L, source: Southern Biotech) as the detection antibody), the effect of the compound treatment on the cellular production of extracellular beta amyloid is quantified. Cells treated with compound are subsequently incubated in cell culture medium containing MTS-formazan. After a short incubation period, MTS/medium containing plates are read in a spectrophotometer to determine the extent to which compound toxicity affected the cell's metabolism and ability to synthesize beta amyloid.
(§2) A. Test Samples: compound samples are supplied as 20 mM stock solutions in a 100% DMSO solution.
(§3) B. APP-REP-NL cells: Qualified cell lines are carried from week to week using 1:100 dilutions and are cultured in DMEM supplemented with 1× antibiotic/antimycotic, 200 ug/ml of G418 antibiotic, and 10% certified fetal calf serum. Cells are also banked in liquid nitrogen. Periodically, beta amyloid production is assessed, and cells are either kept in culture or replaced with progenitors at full expression.
(§4) C. Antibodies: From certified lots that have already been qualified in this assay. Antibodies are stored in small frozen aliquots at −80° C. that are thawed and used.
(§5) A compound is considered active if it has an EC50 for Aβ40 reduction of <100 μM and no toxicity at doses in the vicinity of the EC50.

Data set [3] relates to beta amyloid 42. Description: Aβ40/42 ELISA Assay (Aβ42). Format: cell-based. The note with it: CHO cells carrying the APP-REP-NL plasmid, 22 hours, sandwich ELISA; for pEC50: Cricetulus griseus. The procedure: as §1, §2, §3, §4, §5
On the technique in general: In an ELISA, binding on a coated surface is turned into a signal by an enzyme label.

pEC50: −log10 of the molar value.

For `CCC(CC)C(NS(=O)(=O)c1ccc(Cl)s1)c1ccnn1-c1ccc(C(F)(F)F)cc1` (centres unmarked) [Example 18, 5-Chloro-N-(2-ethyl-1-{1-[4-(trifluoromethyl)phenyl]-1H-pyrazol-5-yl}butyl)thiophene-2-sulfonamide], the fold induction at 20 µg/mL in data set [1] was determined as 2.3. Besides, the negative logarithm of the EC50 (pEC50) in data set [2] is 5.23; in data set [3], 4.97.

`CCC(CC)C(NS(=O)(=O)c1ccc(Cl)s1)c1ncnn1Cc1ccc(OC(F)(F)F)cc1` (centres unmarked) [Example 20, 5-Chloro-N-(2-ethyl-1-{1-[4-(trifluoromethoxy)benzyl]-1H-1,2,4-triazol-5-yl}butyl)thiophene-2-sulfonamide]: in data set [1], the fold induction at 20 µg/mL worked out at 9.8. Also, the negative logarithm of the EC50 (pEC50) in data set [2] was 5.62; in data set [3], 5.37.

For the molecule `CCC(CC)C(NS(=O)(=O)c1ccc(Cl)s1)c1ncnn1Cc1ccccc1` (centres unmarked) [Example 22, N-[1-(1-Benzyl-1H-1,2,4-triazol-5-yl)-2-ethylbutyl]-5-chlorothiophene-2-sulfonamide], the fold induction at 20 µg/mL in data set [1] was found to be 7.2. Moreover, the pEC50 in data set [2] and in data set [3] was 5.82 throughout.

Regarding `CCC(CC)C(NS(=O)(=O)c1ccc(Cl)s1)c1nccn1Cc1ccc(OC)cc1` (centres unmarked) [Example 29, 5-Chloro-N-{2-ethyl-1-[1-(4-methoxybenzyl)-1H-imidazol-2-yl]butyl}thiophene-2-sulfonamide], the fold induction at 20 µg/mL in data set [1] was 1.9. The pEC50 in data set [2] was 4.29; in data set [3], 4.28.

Regarding `CCC(CC)C(NS(=O)(=O)c1ccc(Cl)s1)c1nccn1Cc1ccc(O)cc1` (centres unmarked) [Example 30, 5-Chloro-N-{2-ethyl-1-[1-(4-hydroxybenzyl)-1H-imidazol-2-yl]butyl}thiophene-2-sulfonamide], in data set [1], the fold induction at 20 µg/mL is 8.6. Besides, the negative-log EC50 (pEC50) in data set [2] was 5.28; in data set [3], 5.01.

Consider `COc1ccc(Cn2cccc2C(NS(=O)(=O)c2ccc(Cl)s2)C(C)C)cc1` (centres unmarked) [Example 32, 5-Chloro-N-{1-[1-(4-methoxybenzyl)-1H-pyrrol-2-yl]-2-methylpropyl}thiophene-2-sulfonamide], for which the fold induction at 20 µg/mL in data set [1] amounted to 6.6. Also, the pEC50 in data set [2] was 4.88. In addition, in data set [3], the “Effect on Aβ42 production” value was “increase”.

Consider `CCC(CC)C(NS(=O)(=O)c1ccc(Cl)s1)c1ccnn1OCc1ccccc1` (centres unmarked) [Example 33, N-{1-[1-(Benzyloxy)-1H-pyrazol-5-yl]-2-ethylbutyl}-5-chlorothiophene-2-sulfonamide], for which, in data set [1] (tested at 20 μg/mL), the “RRA data (footnote symbols)” value is reported as “**”. Further, the pEC50 in data set [2] was 5.59; in data set [3], 5.37.

The molecule `O=S(=O)(NC(c1ccc(F)cc1)c1ccnn1-c1ccc(F)cc1)c1ccc(Cl)s1` (centres unmarked) [Example 34, 5-Chloro-N-{(4-fluorophenyl) [1-(4-fluorophenyl)-1H-pyrazol-5-yl]methyl}thiophene-2-sulfonamide] yielded a melting point of 159 to 160 °C. In addition, the pEC50 in data set [2] is 5.24. In addition, the pEC50 in data set [3] is 5.00.

In turn, `CCC(CC)C(NS(=O)(=O)c1ccc(Cl)cc1)c1ccnn1-c1ccccc1` (centres unmarked) [Example 36, 4-Chloro-N-[2-ethyl-1-(1-phenyl-1H-pyrazol-5-yl)butyl]benzenesulfonamide] yielded a melting point of 135 to 136.4 °C. The pEC50 in data set [2] is 4.64. For the same molecule, the “Effect on Aβ42 production” value in data set [3] was “increase”.

With `CCC(CC)C(NS(=O)(=O)c1ccc(C#N)cc1)c1ccnn1-c1ccccc1` (centres unmarked) [Example 37, 4-Cyano-N-[2-ethyl-1-(1-phenyl-1H-pyrazol-5-yl)butyl]benzenesulfonamide], the melting point lay in the range of 134.6 to 136.6 °C. In addition, in data set [2], the pEC50 was 4.07. The “Effect on Aβ42 production” value in data set [3] is given as “increase”.

In turn, `CCC(CC)C(NS(=O)(=O)c1cc(Cl)c(Cl)s1)c1ccnn1-c1ccccc1` (centres unmarked) [Example 38, 4,5-Dichloro-N-[2-ethyl-1-(1-phenyl-1H-pyrazol-5-yl)butyl]thiophene-2-sulfonamide] displayed a melting point of 116 to 119.6 °C. For the same molecule, in data set [2], the pEC50 is 4.88. In addition, the “Effect on Aβ42 production” value in data set [3] is given as “increase”.

The molecule `CCC(CC)C(NS(=O)(=O)c1ccc(Cl)c(Cl)c1)c1ccnn1-c1ccccc1` (centres unmarked) [Example 39, 3,4-Dichloro-N-[2-ethyl-1-(1-phenyl-1H-pyrazol-5-yl)butyl]benzenesulfonamide] returned a melting point of 56 to 66 °C. In addition, the pEC50 in data set [2] is 4.59. In data set [3], the “Effect on Aβ42 production” value is reported as “increase”.

With `CCC(CC)C(NS(=O)(=O)c1ccc(Br)s1)c1ccnn1-c1ccccc1` (centres unmarked) [Example 40, 5-Bromo-N-[2-ethyl-1-(1-phenyl-1H-pyrazol-5-yl)butyl]thiophene-2-sulfonamide], the melting point is 120 to 120.7 °C. The same molecule had a negative-log EC50 (pEC50) in data set [2] of 5.39. Besides, the pEC50 in data set [3] is 5.12.

Regarding `CCC(CC)C(c1ccnn1-c1ccccc1)N(C)S(=O)(=O)c1ccc(C#N)cc1` (centres unmarked) [Example 43, 4-Cyano-N-[2-ethyl-1-(1-phenyl-1H-pyrazol-5-yl)butyl]-N-methylbenzenesulfonamide], the melting point was 37.8 to 54 °C. In data set [2], this molecule gave a pEC50 of 4.32. For the same molecule, in data set [3], the “Effect on Aβ42 production” value is listed as “increase”.

`CCC(CC)C(c1ccnn1-c1ccccc1)N(C)S(=O)(=O)c1ccc(Cl)cc1` (centres unmarked) [Example 44, 4-Chloro-N-[2-ethyl-1-(1-phenyl-1H-pyrazol-5-yl)butyl]-N-methylbenzenesulfonamide] returned a melting point of 86.5 to 89 °C. Besides, the pEC50 in data set [2] is 4.45.

By pEC50 is commonly meant the negative decadic logarithm of the EC50, by convention in mol/L. Broadly, the melting point is the temperature of the solid-liquid transition.
